Patent US20060229290A1, “Staurosporine derivatives for hypereosinophilic syndrome” (priority 2003, published 2006)
Read-outs that look alike come from different tables or passages of the source.

Legend:
FIP1L1-PDGFRαT674I = format: in vivo, Balb/c mice; conditions: at time of death or trial endpoint
Procedure: (§1) The retroviral construct MSCV-FIP1L1-PDGFRα-ires-EGFP and the corresponding T674I mutant were described previously (Cools et al., New England Journal of Medicine Vol. 348 No. 13, p 1201-1214 2003). The N659D mutation was introduced by PCR (polymerase chain reaction).
(§2) Balb/c mice were purchased from Taconic (Germantown, N.Y.). Bone marrow transplant assays (injecting 1×10^6 cells per recipient mouse) and drug treatment of the mice was performed as described previously (Schwaller et al., 1998; Kelly et al.; Weisberg et al., 2002). Imatinib (stored as powder at 4° C.) was resuspended in a 0.5% methylcellulose (MC) solution in water prior to use. PKC412 (6% w/w in Gelucire® 44/14 (GC) (Gattefosse,France)) was stored at 4° C. as a waxy-solid formulation. Prior to administration, the GC/PKC412 waxy solid mixture was melted in a 44° C. water bath and diluted with sterilized deionized water. The animals were weighed at regular basis to ensure that a consistent dose (150 mg/kg/day for imatinib and 100 mg/kg/day for PKC412) of drug was administered. Dosing was performed every 12 hr for imatinib and every 24 hr for PKC412 by oral gavage of a maximum volume of 150 μl per animal using 22 gauge gavage needles (Hornbecks). Placebo animals received the same volume of a MC or GC solution. Any animals with splenomegaly (spleen boundary detectable at the dorsal medline) or that were moribund were sacrificed and analysed for signs of hematological disease. Peripheral blood was collected from the retroorbital cavity using a heparinized glass capillary. Blood smears were stained with Wright and Giemsa. Manual and automated (ADIVA 120 Hematology system, Bayer) total and differential blood cell counts were performed. Histopathologic exam of relevant organs (spleen, liver, heart, lungs, Intestine, hindlimb bones, and kidneys) and preparation of single-cell suspensions from spleen and bone marrow for flow cytometry was performed as described. In comparing the survival time of the mice, all times are measured from the day of BMT (bone marrow transplant), and the log rank test is used to attach a significance level to the difference in the survival curve.

FIP1L1-PDGFRα wild type = target: T1, FIP1L1-PDGFRα wild type (Homo sapiens, UniProt P16234); test: Bone marrow transplant model of FIP1L1-PDGFRα-induced myeloproliferative disease; format: in vivo, Balb/c mice; conditions: at time of death or trial endpoint
T1 construct: FIP1L1 (N-terminal part of FIP1-like 1, Q6UN15); expressed in transfected cells; host or cells: Bone marrow cells retrovirally transduced with MSCV-FIP1L1-PDGFRα-ires-EGFP and transplanted into Balb/c mice; the other entry of the earlier key: FIP1L1 (Q6UN15, Pre-mRNA 3'-end-processing factor FIP1)
Procedure: as §1, §2

[1] = trial 1, FIP1L1-PDGFRαT674I, imatinib 150 mg/kg/day oral gavage
[2] = trial 2, FIP1L1-PDGFRα T674I, imatinib 150 mg/kg/day, PKC412 100 mg/kg/day, oral gavage
[3] = trial 1, FIP1L1-PDGFRα wild type, imatinib 150 mg/kg/day oral gavage
[4] = trial 2, FIP1L1-PDGFRα, imatinib 150 mg/kg/day, PKC412 100 mg/kg/day, oral gavage

T1 sequence (P16234 593-1089 limits assumed): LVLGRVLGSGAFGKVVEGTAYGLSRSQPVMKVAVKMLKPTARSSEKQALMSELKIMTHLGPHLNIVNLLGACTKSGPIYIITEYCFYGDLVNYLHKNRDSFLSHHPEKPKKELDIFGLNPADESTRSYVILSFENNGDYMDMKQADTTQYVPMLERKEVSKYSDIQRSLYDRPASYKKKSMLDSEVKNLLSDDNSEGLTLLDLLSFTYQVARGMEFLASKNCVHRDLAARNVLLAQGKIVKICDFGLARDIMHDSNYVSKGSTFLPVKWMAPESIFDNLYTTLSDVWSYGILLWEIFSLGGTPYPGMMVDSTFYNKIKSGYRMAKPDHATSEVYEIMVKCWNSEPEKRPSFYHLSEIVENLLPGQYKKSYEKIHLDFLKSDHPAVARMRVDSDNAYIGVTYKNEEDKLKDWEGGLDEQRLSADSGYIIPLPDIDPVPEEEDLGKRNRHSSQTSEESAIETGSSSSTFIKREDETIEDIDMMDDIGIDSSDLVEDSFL

Cc1ccc(NC(=O)c2ccc(CN3CCN(C)CC3)cc2)cc1Nc1nccc(-c2cccnc2)n1 [imatinib]
WBC, mean (FIP1L1-PDGFRαT674I; [1]): 4.965e+08 mL⁻¹ | WBC, median (FIP1L1-PDGFRαT674I; [1]): 5.077e+08 mL⁻¹ | WBC, range (FIP1L1-PDGFRαT674I; [1]): 434.6-535.8 ×10^6/ml | WBC, mean (FIP1L1-PDGFRαT674I; [2]): 5.482e+08 mL⁻¹ | WBC, median (FIP1L1-PDGFRαT674I; [2]): 5.915e+08 mL⁻¹ | WBC, range (FIP1L1-PDGFRαT674I; [2]): 364.9-657.6 ×10^6/ml | WBC, mean (FIP1L1-PDGFRα wild type; [3]): 6e+06 mL⁻¹ | WBC, median (FIP1L1-PDGFRα wild type; [3]): 5.2e+06 mL⁻¹ | WBC, range (FIP1L1-PDGFRα wild type; [3]): 4.6-9.4 ×10^6/ml | WBC, mean (FIP1L1-PDGFRα wild type; [4]): 4.8e+06 mL⁻¹ | WBC, median (FIP1L1-PDGFRα wild type; [4]): 4.8e+06 mL⁻¹ | WBC, range (FIP1L1-PDGFRα wild type; [4]): 4.4-5.3 ×10^6/ml
